Measured values from patent publication US9101562B2, “Additives for chlorine dioxide-containing compositions” (BASF CORPORATION, priority 2010, dated 2015).
Where two headings read alike, the source gives them in different places. Where a SMILES comes first, the peptide text is derived from it.

Assay: Chlorine dioxide compatibility: ClO2 decrease in 200 ppm ClO2 test samples containing an additive (UV/Vis absorption or titration)
Assay type: physicochemical
Conditions: for Chlorine dioxide (ppm): 200 ppm ClO2 composition with sucralose 0.5 wt. %
[1] = Table 2, 200 ppm ClO2 test sample, single additive at listed wt. %, interpolated to 8 hours
[2] = Table 2, […], interpolated to 8 hours
[3] = FIG. 1A, 200 ppm ClO2, single sweetener at 0.5 wt. %
[4] = Table 3, 200 ppm ClO2 test sample, single additive at listed wt. %, interpolated to 8 hours
[5] = Table 3, […], interpolated to 8 hours

CC(C)[C@@H]1CC[C@@H](C)C[C@H]1O [Comp. 1, L-menthol]
ClO2 decrease @ 8 hrs [1]: 1%

CC12CCC(CC1=O)C2(C)C (stereo not shown) [Comp. 3, Camphor]
ClO2 decrease @ 8 hrs [1]: 2%

O=Cc1ccccc1 [compound 2, Benzaldehyde]
ClO2 decrease @ 8 hrs [2]: 1%

CC(C)[C@@H]1CC[C@@H](C)CC1=O [compound 4, Menthone]
ClO2 decrease @ 8 hrs [1]: 4%

CCNC(=O)C1CC(C)CCC1C(C)C (stereo not shown) [compound 5, Ethyl Menthane Carboxamide]
ClO2 decrease @ 8 hrs [1]: 5%

CC12CCC(CC1)C(C)(C)O2 [compound 6, Eucalyptol]
ClO2 decrease @ 8 hrs [1]: 13%

COC(=O)[C@H](Cc1ccccc1)NC(=O)[C@@H](N)CC(=O)O [compound 7, Aspartame] (H-Asp-Phe-OMe)
chlorine dioxide concentration versus time behaviour [3]: steep immediate declines in chlorine dioxide concentration, followed by much more gradual declines | ClO2 decrease @ 8 hrs [1]: 2%

O.O.O=C1NS(=O)(=O)c2ccccc21.[Na] [compound 9, Sodium saccharin Dihydrate]
ClO2 decrease @ 8 hrs: 3% | chlorine dioxide concentration versus time behaviour: steep immediate declines in chlorine dioxide concentration, followed by much more gradual declines

OC[C@H]1O[C@H](O[C@]2(CCl)O[C@H](CCl)[C@@H](O)[C@@H]2O)[C@H](O)[C@@H](O)[C@H]1Cl [compound 10, Sucralose]
chlorine dioxide concentration versus time behaviour [3]: steep immediate declines in chlorine dioxide concentration, followed by much more gradual declines | ClO2 decrease @ 8 hrs [1]: 9% | chlorine dioxide present at 8 hours (interpolation of the data at 0.88 hours and 15.35 hours): 166.5 ppm | Chlorine dioxide (ppm) (time 0.25 hours): 183 ppm | Chlorine dioxide (ppm) (time 0.88 hours): 168 ppm | Chlorine dioxide (ppm) (time 15.35 hours): 165 ppm | Chlorine dioxide (ppm) (time 22.62 hours): 165 ppm | Chlorine dioxide (ppm) (time 70.58 hours): 163 ppm

OCc1ccccc1 [compound 12, Benzyl Alcohol]
ClO2 decrease @ 8 hrs [1]: 8%

CC(O)CO (stereo not shown) [compound 13, Propylene Glycol]
ClO2 decrease @ 8 hrs [2]: 1%

OCC(O)CO [compound 15, Glycerol]
ClO2 decrease @ 8 hrs [1]: 1%

CCOC(C)=O [compound 16, Ethyl Acetate]
ClO2 decrease @ 8 hrs: 3%

CCO [compound 17, Ethanol]
ClO2 decrease @ 8 hrs [1]: 4%

CC(C)=O [compound 19, Acetone]
ClO2 decrease @ 8 hrs: 0.04%

N[C@@H](CCC(=O)O)C(=O)O [compound 21, l-Glutamic Acid]
ClO2 decrease @ 8 hrs [2]: 1%

O=C1O[C@H]([C@@H](O)CO)C(O)=C1O [compound 28, Ascorbic Acid]
ClO2 decrease @ 8 hrs [4]: 100%

C/C=C/C=C/C(=O)O [compound 29, Sorbic Acid]
ClO2 decrease @ 8 hrs [4]: 100%

COc1ccc(C=O)cc1OC [compound 30, Methyl Vanillin]
ClO2 decrease @ 8 hrs: 100%

CC=Cc1ccc(OC)cc1 [compound 31, Anethole]
ClO2 decrease @ 8 hrs [5]: 100%

CC1=CC(=O)NS(=O)(=O)O1 [compound 32, Acesulfame Potassium]
ClO2 decrease @ 8 hrs: 100% | chlorine dioxide concentration versus time behaviour: consumed all of the chlorine dioxide within about the first hour

C/C=C/C=C/C(=O)[O-].[K+] [compound 35, Potassium Sorbate]
ClO2 decrease @ 8 hrs: 99%

NCCO [compound 38, Monoethanolamine]
ClO2 decrease @ 8 hrs: 92%

t-Cinnamaldehyde [compound 26]
ClO2 decrease @ 8 hrs [5]: 37%
